Results on 2 compounds are retold here after patent US20240049720A1, “A SYNERGISTIC AGRICULTURAL COMPOSITION” (priority 2021, published 2024).

One test concerns Erwinia amylovora. Put plainly: Foliar application on apple trees (var. gala), control of Erwinia amylovora. It is filed as in vivo. The conditions noted are these: apple plants var. Gala; foliar spray, three applications every 7 days; kasugamycin 3.15 g/kg and/or copper 8 g/kg (17.32 g/kg copper monoglycinate). The text has this: Example 4: Foliar Application of Kasugamycin and Copper Glycinate in Apple Trees (var. gala) for Controlling Erwinia amylovora
Apple trees (var. gala) were foliar sprayed with formulations having kasugamycin alone, copper glycinate alone, and combination of kasugamycin and copper glycinate. The formulation having Kasugamycin alone was applied at a dosage of 3.15 g/kg of kasugamycin (3.45 g/kg of kasugamycin hydrochloride hydrate). The formulation having copper monoglycinate was applied at a dosage of 8 g/kg of copper (17.32 g/kg of copper monoglycinate). The formulation having kasugamycin and copper monoglycinate was applied at a dosage of 3.15 g/kg of kasugamycin (3.45 g/kg of kasugamycin hydrochloride hydrate) and 8 g/kg of copper (17.32 g/kg of copper monoglycinate).
Three applications were made every 7 days when the first symptoms of the disease appeared, and the % control of Erwinia amylovora was determined. Control percentage of Erwinia amylovora with the K+CuGly mixture, as well as of kasugamycin and copper monoglycinate separately, are provided in Table 3 below: […]

Test [1] deals with Xanthomonas campestris pv. vesicatoria. Put plainly: Foliar application on tomato plants (var. Pony express), control of bacterial disease. The settings on record: foliar spray, three applications every 7 days, kasugamycin 2.1 g/kg and/or copper 8 g/kg (17.32 g/kg copper monoglycinate). Type of test: in vivo. An excerpt:
Example 3: Foliar Application of Kasugamycin and Copper Glycinate in Tomato Plants (Var. Pony Express) for Controlling Xanthomonas campestris pv. vesicatoria
Tomato plants (var. Pony express) were foliar sprayed with formulations having kasugamycin alone, copper monoglycinate alone, and combination of kasugamycin and copper monoglycinate. The formulation having kasugamycin alone was applied at a dosage of 2.1 g/kg of kasugamycin (2.3 g/kg of kasugamycin hydrochloride hydrate) and the treatment was designated as T1. The formulation having copper monoglycinate was applied at a dosage of 8 g/kg of copper (17.32 g/kg of copper monoglycinate) and the treatment was designated as T2. The formulation having kasugamycin and copper monoglycinate was applied at a dosage of 2.1 g/kg of kasugamycin (2.3 g/kg of kasugamycin hydrochloride hydrate) and 8 g/kg of copper (17.32 g/kg of copper monoglycinate) and the treatment was designated as T3.
Three applications were made every 7 days when the first symptoms of the disease appeared, and the % control of […] was determined. Control percentage of Xanthomonas campestris pv. vesicatoria with the K+CuGly mixture, as well as of kasugamycin and copper glycinate separately are provided in Table 2 below: […]

A further test relates to Fusarium spp. Kind of test: In vitro control of Fusarium spp on PDA medium. Type of test: cell-based. The conditions noted are these: strain isolated from potato, dose 1 L/400 L water, mixture in 1:1 ratio, 28-30° C, dark, evaluated 7 days later. Here is the method: In Vitro Control of Fusarium spp Using Kasugamycin and Copper Glycinate
A strain of Fusarium spp isolated from potato was cultivated was in solid potato dextrose agar medium. The efficacy of the mixture of kasugamycin and copper glycinate in a 1:1 ratio, and each component individually was tested.
(§1) The in vitro assessment of the products effectiveness was carried out as per the treatments discussed in Table 4. Accordingly, the components in each treatment were dissolved in PDA culture medium at the dose indicated above. The mixture was homogenized and poured into sterile petri dishes. Explants of 5 mm diameter of the fungus strain Fusarium spp. were placed on the petri dishes with PDA. The dishes were incubated inverted, in dark conditions at a temperature of 28-30° C. The evaluation of the inhibition of the fungus was carried out 7 days later. Control percentage of Fusarium sp. with the K+CuGly mixture, as well as of kasugamycin and copper monoglycinate separately are provided in Table 5 below: […]

For a further test, the system named is Alternaria alternata. Put plainly: In vitro control of Alternaria alternata on PDA medium. The settings on record: dose 1 L/400 L water, mixture in 1:1 ratio, 28-30° C, dark, evaluated 7 days later. It is filed as cell-based. How it is done: In Vitro Control of Alternaria alternata Using Kasugamycin and Copper Glycinate
Alternaria alternata was cultivated was in solid potato dextrose agar medium. The efficacy of the mixture of kasugamycin and copper glycinate in a 1:1 ratio, and each component individually was tested.
as §1, with “6.” for “4.”, “Alternaria alternata” for “Fusarium spp.”, “Alternaria alternata” for “Fusarium sp.”

Regarding `C[C@H]1O[C@H](O[C@H]2[C@H](O)[C@@H](O)[C@@H](O)[C@H](O)[C@@H]2O)[C@@H](N)C[C@@H]1NC(=N)C(=O)O` [Kasugamycin], the “% control of Erwinia amylovora” value in the test on Erwinia amylovora is given as 55.6%. In addition, the “% control of Xanthomonas campestris pv. vesicatoria” value in test [1] was found to be 93.2%. The “% control of Fusarium sp.” value in the test on Fusarium spp stood at 55%. For the same compound, the “% Control of Alternaria alternata” value in the test with Alternaria alternata came out at 79%.
On to Copper monoglycinate [Copper glycinate], for which, in the test with Erwinia amylovora, the “% control of Erwinia amylovora” value is 50%. Besides, the “% control of Xanthomonas campestris pv. vesicatoria” value in test [1] was found to be 80.5%. Moreover, the “% control of Fusarium sp.” value in the test on Fusarium spp is 39%. Further, the “% Control of Alternaria alternata” value with Alternaria alternata amounted to 53%.
